The text below walks through data of ChEMBL document CHEMBL1137335, “Multivalent effects of RGD peptides obtained by nanoparticle display” (J Med Chem, 2006).

Assay [1] concerns BT-20. The assay is described as follows: Level of peptide binding to human BT20 cells indicating presence of integrin alphaVbeta3. The class given is functional.
The test system of another assay is 9L. The assay is described as follows: Level of peptide binding to rat 9L cells indicating presence of integrin alphaVbeta3. It is filed as functional.
Assay [2] has as its system HUVEC. The assay is described as follows: Uptake in human HUVEC. The class given is functional, cell-based.
Assay [3] concerns HUVEC. The assay is described as follows: Antiadhesive activity against human HUVEC. The class given is functional, cell-based.
The subject of assay [4] is BT-20. The assay is described as follows: Uptake in human BT20 cells. The class given is functional, cell-based.
Assay [5] deals with BT-20. The assay is described as follows: Antiadhesive activity against human BT20 cells. The class given is functional, cell-based.

pEC50, pIC50: −log10 of the molar value. Positions of bridges follow the written chain, without caps; N, C: chain ends. Residues, ends and D or L forms follow the SMILES beside them. *: point of attachment. 5FAM = O=C1OC2(c3ccc(O)cc3Oc3cc(O)ccc32)c2ccc(C(=O)*)cc21

Broadly, the pEC50 is −log10 of the EC50, conventionally taken in molar units. A low value points to a high EC50. Usually pIC50 stands for the negative decadic logarithm of the IC50, by convention in mol/L. Read a high pIC50 as a low IC50.

As for `NCC(=O)N[C@@H](CO)C(=O)N[C@@H](CO)C(=O)N[C@@H](CCCCNC(=O)c1ccc2c(c1)C(=O)OC21c2ccc(O)cc2Oc2cc(O)ccc21)C(=O)NCC(=O)NCC(=O)NCC(=O)N[C@H]1CSSC[C@@H](C(=O)O)NC(=O)[C@H](CC(=O)O)NC(=O)CNC(=O)[C@H](CCCN=C(N)N)NC1=O` (H-GSSK(5FAM)GGGCRGDC-OH; disulfide 8-12), the Activity in the assay with BT-20 [1] turned out to be 0.82 pmol; with 9L, 0.16 pmol. Also, the pEC50 with HUVEC [2] is 5.22; with BT-20 [4], 5.92. Besides, the pIC50 with HUVEC [3] is 6.12; in the assay with BT-20 [5] it was 3.89.
